Measured values taken from patent US9221796B2, “Selective NR2B antagonists” (BRISTOL-MYERS SQUIBB COMPANY, priority 2014, dated 2015).

The compounds below were run against NR2B-subtype NMDA receptors (Rattus norvegicus (Rat), UniProt P35439+Q00960) (assay: Radioligand binding assay (3H Ro 25-6981 competition, forebrain membranes)). Settings: 3H Ro 25-6981 (4 nM), listed as 44, E-1, read-out: NR2B Binding Ki.
Method: Radioligand Binding Assay. […] Buchy D; Klingelschmidt A; Messer J; Bleuel Z; Kemp J A; Richards J G. […] Thawed brains were homogenized using a Dounce homogenizer and centrifuged at 48000×g for 20 min. The pellet was resuspended in cold buffer and homogenized again using a Dounce homogenizer. […] After incubation for 1 hr at room temperature, the membrane bound radioligand was harvested on to GF/B filter plates (treated with 0.5% PEI for 1 hr at room temperature). The filter plates were dried at 50° C. for 20 mins, incubated with microscint 20 for 10 minutes and finally, the counts were read on TopCount (Perkin Elmer). […] CPM values were converted to % inhibition and the concentration response curves were plotted using custom made software. Each experiment was repeated at least twice to obtain the final binding Ki values for experimental compounds.

Sequence of NR2B-subtype NMDA receptors (Q00960 27-1482, other chains not shown): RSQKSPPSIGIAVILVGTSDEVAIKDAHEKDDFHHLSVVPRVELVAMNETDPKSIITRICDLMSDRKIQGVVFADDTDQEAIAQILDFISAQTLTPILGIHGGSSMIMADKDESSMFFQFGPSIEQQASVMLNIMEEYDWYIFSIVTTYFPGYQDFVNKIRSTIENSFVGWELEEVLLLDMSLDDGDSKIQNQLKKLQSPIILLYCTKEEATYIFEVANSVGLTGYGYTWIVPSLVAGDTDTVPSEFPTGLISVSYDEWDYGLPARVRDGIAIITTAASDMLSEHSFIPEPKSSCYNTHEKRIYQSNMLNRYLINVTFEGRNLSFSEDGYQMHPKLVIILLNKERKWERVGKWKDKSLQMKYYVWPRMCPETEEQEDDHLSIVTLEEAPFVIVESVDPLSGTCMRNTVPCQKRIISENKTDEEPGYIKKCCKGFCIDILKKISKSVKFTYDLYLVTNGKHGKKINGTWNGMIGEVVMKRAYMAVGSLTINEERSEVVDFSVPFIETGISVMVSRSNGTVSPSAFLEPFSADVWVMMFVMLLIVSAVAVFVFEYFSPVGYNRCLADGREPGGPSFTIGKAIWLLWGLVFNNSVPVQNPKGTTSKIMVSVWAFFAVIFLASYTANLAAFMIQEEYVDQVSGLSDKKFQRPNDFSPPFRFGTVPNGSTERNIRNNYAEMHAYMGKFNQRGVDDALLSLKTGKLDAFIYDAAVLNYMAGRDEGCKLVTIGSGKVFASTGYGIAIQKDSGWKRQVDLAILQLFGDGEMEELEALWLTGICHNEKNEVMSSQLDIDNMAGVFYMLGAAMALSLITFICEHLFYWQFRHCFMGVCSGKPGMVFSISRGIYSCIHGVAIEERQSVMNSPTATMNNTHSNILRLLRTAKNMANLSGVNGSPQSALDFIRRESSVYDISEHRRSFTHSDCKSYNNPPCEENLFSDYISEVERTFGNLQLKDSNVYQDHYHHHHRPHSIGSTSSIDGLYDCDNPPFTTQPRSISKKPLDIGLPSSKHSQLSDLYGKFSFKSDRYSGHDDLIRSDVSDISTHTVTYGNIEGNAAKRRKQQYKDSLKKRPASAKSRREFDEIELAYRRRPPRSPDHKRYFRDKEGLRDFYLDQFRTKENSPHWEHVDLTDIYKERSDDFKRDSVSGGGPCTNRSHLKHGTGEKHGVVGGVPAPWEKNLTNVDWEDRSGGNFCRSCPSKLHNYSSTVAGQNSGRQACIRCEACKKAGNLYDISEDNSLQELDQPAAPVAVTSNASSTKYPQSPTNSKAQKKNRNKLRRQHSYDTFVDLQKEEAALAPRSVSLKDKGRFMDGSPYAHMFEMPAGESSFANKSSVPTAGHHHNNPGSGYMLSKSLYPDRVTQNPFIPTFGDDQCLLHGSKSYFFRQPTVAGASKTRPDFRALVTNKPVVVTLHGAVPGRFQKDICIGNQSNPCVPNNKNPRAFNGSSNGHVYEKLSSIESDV

| Ki [nM] | SMILES |
| --- | --- |
| 650 | O=C1C(N2CCC(c3ccc(O)cc3)C(O)C2)CCN1Cc1ccc(F)cc1 (single isomer, unassigned) [Example 44, E-1, 1-(4-Fluorobenzyl)-3-(cis-3-hydroxy-4-(4-hydroxyphenyl)piperidin-1-yl)pyrrolidin-2-one] |

Same assay, conditions: 3H Ro 25-6981 (4 nM), listed as 44, E-2, read-out: NR2B Binding Ki

| Ki [nM] | SMILES |
| --- | --- |
| 5.7 | O=C1C(N2CCC(c3ccc(O)cc3)C(O)C2)CCN1Cc1ccc(F)cc1 (single isomer, unassigned) [Example 44, E-2, 1-(4-Fluorobenzyl)-3-(cis-3-hydroxy-4-(4-hydroxyphenyl)piperidin-1-yl)pyrrolidin-2-one] |

Same assay, conditions: 3H Ro 25-6981 (4 nM), read-out: NR2B Binding Ki

| SMILES | Ki [nM] |
| --- | --- |
| O=C1C(N2CCC(c3ccc(O)cc3)CC2)CCN1Cc1ccc(F)c(F)c1 (racemic) [Example 5, 1-(3,4-Difluorobenzyl)-3-(4-(4-hydroxyphenyl)piperidin-1-yl)pyrrolidin-2-one] | 4.4 |
| O=C1C(N2CCC(c3ccc(O)cc3)CC2)CCN1Cc1ccc(Cl)cc1 (racemic) [Example 17, 1-(4-Chlorobenzyl)-3-(4-(4-hydroxyphenyl)piperidin-1-yl)pyrrolidin-2-one] | 1.6 |
| O=C1C(N2CCC(c3ccc(O)cc3)C(F)(F)C2)CCN1Cc1ccc(C(F)(F)F)cc1 (single isomer, unassigned) [Example 53, P-1, 3-(3,3-Difluoro-4-(4-hydroxyphenyl)piperidin-1-yl)-1-(4-(trifluoromethyl)-benzyl)pyrrolidin-2-one] | 1100 |
| O=C1C(N2CCC(c3ccc(O)cc3)C(F)(F)C2)CCN1Cc1ccc(C(F)(F)F)cc1 (single isomer, unassigned) [Example 53, P-2, 3-(3,3-Difluoro-4-(4-hydroxyphenyl)piperidin-1-yl)-1-(4-(trifluoromethyl)-benzyl)pyrrolidin-2-one] | 5.8 |
| C[C@@H](c1ccc(F)cc1)N1CCC(N2CCC(c3ccc(O)cc3)C(F)(F)C2)C1=O (single isomer, unassigned) [Example 56, P-1] | ≥ 5000 |
| C[C@@H](c1ccc(F)cc1)N1CCC(N2CCC(c3ccc(O)cc3)C(F)(F)C2)C1=O (single isomer, unassigned) [Example 56, P-2] | 1400 |
| C[C@@H](c1ccc(F)cc1)N1CCC(N2CCC(c3ccc(O)cc3)C(F)(F)C2)C1=O (single isomer, unassigned) [Example 56, P-3] | ≥ 5000 |
| C[C@@H](c1ccc(F)cc1)N1CCC(N2CCC(c3ccc(O)cc3)C(F)(F)C2)C1=O (single isomer, unassigned) [Example 56, P-4] | 660 |
| O=C1C(N2CCC(c3ccc(O)cc3)C(F)(F)C2)CCN1Cc1ccccc1 (single isomer, unassigned) [Example 91, P-1, 1-Benzyl-3-(3,3-difluoro-4-(4-hydroxyphenyl)piperidin-1-yl)pyrrolidin-2-one] | 76 |
| O=C1C(N2CCC(c3ccc(O)cc3)C(F)(F)C2)CCN1Cc1ccccc1 (single isomer, unassigned) [Example 91, P-2, 1-Benzyl-3-(3,3-difluoro-4-(4-hydroxyphenyl)piperidin-1-yl)pyrrolidin-2-one] | 14 |
| O=C1[C@@H](N2CCC(c3ccc(O)cc3)C(F)(F)C2)CCN1Cc1ccc(C(F)(F)F)cc1 (single isomer, unassigned) [Example 99, P-1] | 380 |
| O=C1[C@@H](N2CCC(c3ccc(O)cc3)C(F)(F)C2)CCN1Cc1ccc(Cl)c(F)c1 (single isomer, unassigned) [Example 107, P-1] | 1200 |
| O=C1[C@H](N2CCC(c3ccc(O)cc3)C(F)(F)C2)CCN1Cc1ccc(Cl)c(F)c1 (single isomer, unassigned) [Example 107, P-2] | 7.7 |
| O=C1[C@@H](N2CCC(c3ccc(O)cc3)C(F)(F)C2)CCN1Cc1ccc(F)c(F)c1 (single isomer, unassigned) [Example 108, P-1] | 1200 |
| O=C1[C@H](N2CCC(c3ccc(O)cc3)C(F)(F)C2)CCN1Cc1ccc(F)c(F)c1 (single isomer, unassigned) [Example 108, P-2] | 15 |
| O=C1C(N2CCC(c3ccc(O)cc3)C(F)(F)C2)CCN1Cc1ccc(C(F)(F)F)cc1 (stereo in doubt) [Example 99, P-2, (3S)-3-(3,3-Difluoro-4-(4-hydroxyphenyl)piperidin-1-yl)-1-(4-(trifluoromethyl)benzyl)-pyrrolidin-2-one] | 22 |
| Cc1ccc(CN2CCC(N3CCCC(c4ccc(O)cc4)C3)C2=O)cc1 (stereo not shown) [Example 3, 1-(4-Methylbenzyl)-3-(3-(4-hydroxyphenyl)piperidin-1-yl)pyrrolidin-2-one] | 1320 |
| O=C1C(N2CCCC(c3ccc(O)cc3)C2)CCN1Cc1ccc(F)cc1 (stereo not shown) [Example 4, 1-(4-Fluorobenzyl)-3-(3-(4-hydroxyphenyl)piperidin-1-yl)pyrrolidin-2-one] | ≥ 5000 |
| O=C1C(N2CCC(c3ccc(O)cc3)CC2)CCN1Cc1ccc(OC(F)F)cc1 (stereo not shown) [Example 7, 1-(4-(Difluoromethoxy)benzyl)-3-(4-(4-hydroxyphenyl)piperidin-1-yl)pyrrolidin-2-one] | 37 |
| O=C1C(N2CCC(c3ccc(O)cc3)C(O)C2)CCN1Cc1ccc(F)cc1 (stereo not shown) [Example 8, 1-(4-Fluorobenzyl)-3-(3-hydroxy-4-(4-hydroxyphenyl)piperidin-1-yl)pyrrolidin-2-one] | 420 |
| O=C1C(N2CC(c3ccc(O)cc3)C2)CCN1Cc1ccc(F)c(F)c1 (stereo not shown) [Example 10, 1-(3,4-Difluorobenzyl)-3-(3-(4-hydroxyphenyl)azetidin-1-yl)pyrrolidin-2-one] | 1020 |
| O=C1C(N2CC(c3ccc(O)cc3)C2)CCN1Cc1ccc(F)cc1 (stereo not shown) [Example 11, 1-(4-Fluorobenzyl)-3-(3-(4-hydroxyphenyl)azetidin-1-yl)pyrrolidin-2-one] | 510 |
| O=C1C(N2CCC(c3ccc(O)cc3)CC2)CCN1Cc1ccccc1 (stereo not shown) [Example 12, 1-Benzyl-3-(4-(4-hydroxyphenyl)piperidin-1-yl)pyrrolidin-2-one] | 4 |
| O=C1C(N2CCC(c3ccc(O)cc3)CC2)CCN1Cc1ccc(Cl)c(F)c1 (stereo not shown) [Example 15, 1-(4-Chloro-3-fluorobenzyl)-3-(4-(4-hydroxyphenyl)piperidin-1-yl)pyrrolidin-2-one] | 12 |
| O=C1C(N2CC(c3ccc(O)cc3)C2)CCN1Cc1ccccc1 (stereo not shown) [Example 16, 1-Benzyl-3-(3-(4-hydroxyphenyl)azetidin-1-yl)pyrrolidin-2-one] | 560 |

More lines, now with the values ahead:

| Ki [nM] | SMILES |
| --- | --- |
| 180 | O=C1C(N2CCC(c3ccc(O)cc3)C(O)C2)CCN1Cc1ccc(F)cc1 (single isomer, unassigned) [Example 9a, 1-(4-Fluorobenzyl)-3-(3-hydroxy-4-(4-hydroxyphenyl)piperidin-1-yl)pyrrolidin-2-one] |
| 1400 | O=C1C(N2CCC(c3ccc(O)cc3)C(O)C2)CCN1Cc1ccc(F)cc1 (single isomer, unassigned) [Example 9b, 1-(4-Fluorobenzyl)-3-(3-hydroxy-4-(4-hydroxyphenyl)-piperidin-1-yl)pyrrolidin-2-one] |
| 5000 | O=C1C(N2CCC(c3ccc(O)cc3)C(O)C2)CCN1Cc1ccc(F)cc1 (single isomer, unassigned) [Example 9c, 1-(4-Fluorobenzyl)-3-(3-hydroxy-4-(4-hydroxyphenyl)-piperidin-1-yl)pyrrolidin-2-one] |
| 160 | O=C1C(N2CCC(c3ccc(O)cc3)C(O)C2)CCN1Cc1ccc(F)cc1 (single isomer, unassigned) [Example 9d, 1-(4-Fluorobenzyl)-3-(3-hydroxy-4-(4-hydroxyphenyl)piperidin-1-yl)pyrrolidin-2-one] |
| 990 | O=C1C(N2CCC(c3ccc(O)cc3)CC2)CCCN1Cc1ccccc1 (single isomer, unassigned) [Example 41a, 1′-Benzyl-4-(4-hydroxyphenyl)-[1,3′-bipiperidin]-2′-one] |
| 200 | O=C1C(N2CCC(c3ccc(O)cc3)CC2)CCCN1Cc1ccccc1 (single isomer, unassigned) [Example 41b, 1′-Benzyl-4-(4-hydroxyphenyl)-[1,3′-bipiperidin]-2′-one] |
| 740 | O=C1[C@@H](N2CCC(c3ccc(O)cc3)CC2)CCN1Cc1ccc(F)cc1 [Example 2a, (S)-1-(4-Fluorobenzyl)-3-(4-(4-hydroxyphenyl)-piperidin-1-yl)pyrrolidin-2-one] |
| 1.4 | O=C1[C@H](N2CCC(c3ccc(O)cc3)CC2)CCN1Cc1ccc(F)cc1 [Example 2b, (R)-1-(4-Fluorobenzyl)-3-(4-(4-hydroxyphenyl)piperidin-1-yl)pyrrolidin-2-one] |
| 850 | O=C1[C@@H](N2CCC(c3ccc(O)cc3)CC2)CCN1Cc1ccc(F)c(F)c1 [Example 6a, (S)-1-(3,4-Difluorobenzyl)-3-(4-(4-hydroxyphenyl)piperidin-1-yl)pyrrolidin-2-one] |
| 4.7 | O=C1[C@H](N2CCC(c3ccc(O)cc3)CC2)CCN1Cc1ccc(F)c(F)c1 [Example 6b, (R)-1-(3,4-Difluorobenzyl)-3-(4-(4-hydroxyphenyl)piperidin-1-yl)pyrrolidin-2-one] |
| 41 | O=C1[C@@H](N2CCC(c3ccc(O)cc3)CC2)CCN1Cc1ccccc1 [Example 13a, (S)-1-Benzyl-3-(4-(4-hydroxyphenyl)piperidin-1-yl)pyrrolidin-2-one] |
| 1.6 | O=C1[C@H](N2CCC(c3ccc(O)cc3)CC2)CCN1Cc1ccccc1 [Example 13b, (R)-1-Benzyl-3-(4-(4-hydroxyphenyl)piperidin-1-yl)pyrrolidin-2-one] |
| 170 | O=C1[C@@H](N2CCC(c3ccc(O)cc3)CC2)CCN1Cc1ccc(Cl)cc1 [Example 18a, (S)-1-(4-Chlorobenzyl)-3-(4-(4-hydroxyphenyl)piperidin-1-yl)pyrrolidin-2-one] |
